# The source made the active and inactive calls. How the calls were made is not given here.
# Assays:
# Test in all cases: serine hydrolase inhibition in mouse brain membranes, late-stage follow-up, selectivity assay for DAGLb inhibitor project, biochemical, gel-based competitive ABPP, fluorescence, set 2 (AID 602323)
# [1] = molecular target: Diacylglycerol lipase-beta (Mus musculus) (UniProt Q91WC9); conditions: mouse brain membrane, DAGLb, at 1 µM, active compounds read high
# [2] = molecular target: Monoacylglycerol lipase ABHD6 (Mus musculus) (UniProt Q8R2Y0); conditions: mouse brain membrane, at 1 µM, active compounds read high
# Monoacylglycerol lipase ABHD6 (Mus musculus), sequence (Q8R2Y0 whole entry, looked up): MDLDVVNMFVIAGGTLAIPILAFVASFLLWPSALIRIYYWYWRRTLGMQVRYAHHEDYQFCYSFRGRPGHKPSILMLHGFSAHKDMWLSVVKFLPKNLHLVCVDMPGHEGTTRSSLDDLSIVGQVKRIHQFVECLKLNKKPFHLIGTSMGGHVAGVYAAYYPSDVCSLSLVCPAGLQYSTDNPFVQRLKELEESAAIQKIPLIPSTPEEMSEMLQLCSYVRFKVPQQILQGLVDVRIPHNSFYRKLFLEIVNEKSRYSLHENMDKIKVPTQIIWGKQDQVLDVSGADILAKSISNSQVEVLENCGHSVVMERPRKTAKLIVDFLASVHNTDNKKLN
# [3] = molecular target: Platelet-activating factor acetylhydrolase (Mus musculus) (UniProt Q60963); conditions: mouse brain membrane, PLA2G7, at 1 µM, active compounds read high
# Platelet-activating factor acetylhydrolase (Mus musculus), sequence (Q60963 whole entry, looked up): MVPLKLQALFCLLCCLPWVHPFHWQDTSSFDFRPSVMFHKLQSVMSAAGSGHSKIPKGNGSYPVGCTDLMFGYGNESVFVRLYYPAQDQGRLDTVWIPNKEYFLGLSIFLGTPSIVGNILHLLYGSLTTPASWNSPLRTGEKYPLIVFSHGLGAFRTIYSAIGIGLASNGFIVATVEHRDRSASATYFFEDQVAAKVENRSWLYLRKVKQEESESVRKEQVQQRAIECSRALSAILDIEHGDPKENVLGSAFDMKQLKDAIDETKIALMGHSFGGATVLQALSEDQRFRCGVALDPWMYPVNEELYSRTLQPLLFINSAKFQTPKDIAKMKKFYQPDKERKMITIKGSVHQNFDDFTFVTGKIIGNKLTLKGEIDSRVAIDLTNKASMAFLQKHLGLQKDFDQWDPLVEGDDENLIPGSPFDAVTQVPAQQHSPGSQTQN
# Diacylglycerol lipase-beta (Mus musculus), sequence (Q91WC9 whole entry, looked up): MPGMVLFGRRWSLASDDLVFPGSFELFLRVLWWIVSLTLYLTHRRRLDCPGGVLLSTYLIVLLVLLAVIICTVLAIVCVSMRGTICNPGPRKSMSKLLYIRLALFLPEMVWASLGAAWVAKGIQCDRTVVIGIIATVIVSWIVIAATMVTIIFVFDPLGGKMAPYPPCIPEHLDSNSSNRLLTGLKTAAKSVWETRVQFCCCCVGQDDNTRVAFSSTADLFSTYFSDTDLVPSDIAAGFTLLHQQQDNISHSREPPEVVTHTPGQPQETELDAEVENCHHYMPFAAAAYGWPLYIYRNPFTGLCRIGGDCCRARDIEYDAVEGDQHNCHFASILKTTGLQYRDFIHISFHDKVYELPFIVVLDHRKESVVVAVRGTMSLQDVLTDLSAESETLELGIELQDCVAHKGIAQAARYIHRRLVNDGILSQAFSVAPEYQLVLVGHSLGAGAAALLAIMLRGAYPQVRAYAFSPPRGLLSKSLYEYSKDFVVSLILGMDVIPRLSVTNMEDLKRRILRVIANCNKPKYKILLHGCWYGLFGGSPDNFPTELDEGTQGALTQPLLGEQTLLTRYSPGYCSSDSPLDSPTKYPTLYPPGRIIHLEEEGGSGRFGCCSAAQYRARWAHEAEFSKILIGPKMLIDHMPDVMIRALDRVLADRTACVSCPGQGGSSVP
inhibition [1],inhibition [2] [%],inhibition [3],SMILES
75%,90,25% (inactive),O=C(N1CCCCC1Cc1ccccc1)n1cc(-c2ccc(-c3ccccc3C(F)(F)F)cc2)nn1 (stereo not given)
90%,90,90%,O=C(N1CCCCC1Cc1ccccc1)n1cc(-c2ccc(-c3ccccc3Cl)cc2)nn1 (stereo not given)
60%,90,45% (inactive),O=C(N1CCCCC1Cc1ccccc1)n1cc(-c2ccc(-c3ccoc3)cc2)nn1 (stereo not given)
80%,95,60%,O=C(N1CCCCC1Cc1ccccc1)n1cc(-c2ccc(-c3ccccc3OC(F)(F)F)cc2)nn1 (stereo not given)
45% (inactive),95,25% (inactive),O=C(N1CCCCC1Cc1ccccc1)n1cc(-c2ccc(-c3cccc(C(F)(F)F)c3)cc2)nn1 (stereo not given)
25% (inactive),90,0% (inactive),O=C(N1CCCCC1Cc1ccccc1)n1cc(-c2ccc(-c3cccc(CO)c3)cc2)nn1 (stereo not given)
20% (inactive),90,50%,O=C(N1CCCCC1Cc1ccccc1)n1cc(-c2ccc(-c3ccc(OC(F)(F)F)cc3)cc2)nn1 (stereo not given)
25% (inactive),80,50%,O=C(N1CCCCC1Cc1ccccc1)n1cc(-c2ccc(-c3ccc(C(F)(F)F)cc3)cc2)nn1 (stereo not given)
80%,90,80%,Cc1ccccc1-c1ccc(-c2cn(C(=O)N3CCCCC3Cc3ccccc3)nn2)cc1 (stereo not given)

# Continued, molecule first:
SMILES,inhibition [1],inhibition [2] [%],inhibition [3]
O=C(N(CCc1ccccc1)Cc1ccco1)n1cc(-c2ccc(OC(F)(F)F)cc2)nn1,95%,95,95%
O=C(c1ccc(-c2ccc(-c3cn(C(=O)N4CCCCC4Cc4ccccc4)nn3)cc2)cc1)N1CCCCC1 (stereo not given),20% (inactive),90,0% (inactive)
CC(C)CN(CCc1ccccc1)C(=O)n1cc(-c2ccc(OC(F)(F)F)cc2)nn1,90%,95,95%
O=C(N1CCCCC1Cc1ccccc1)n1cc(-c2ccc(-c3ccccc3)cc2)nn1 (stereo not given),80%,95,40% (inactive)
COc1ccccc1-c1ccc(-c2cn(C(=O)N3CCCCC3Cc3ccccc3)nn2)cc1 (stereo not given),85%,95,25% (inactive)
CC(C)(C)OC(=O)NCCCCCN(CCc1ccccc1)C(=O)n1cc(-c2ccc(OC(F)(F)F)cc2)nn1,95%,90,95%
O=C(N1CCCCC1Cc1ccccc1)n1ncc(-c2ccc(OC(F)(F)F)cc2)n1 (stereo not given),50%,70,90%
O=C(N1CCCCC1Cc1ccccc1)n1ncc(C(O)(c2ccccc2)c2ccccc2)n1 (stereo not given),80%,90,0% (inactive)
O=C(N1CCCCC1Cc1ccccc1)n1cc(-c2ccccc2-c2ccccc2)nn1 (stereo not given),75%,95,40% (inactive)
O=C(N1CCCCC1Cc1ccccc1)n1cc(-c2ccc(Br)cc2)nn1 (stereo not given),85%,98,95%
O=C(N1CCCCC1Cc1ccccc1)n1cc(-c2ccc(-c3ccccc3CO)cc2)nn1 (stereo not given),90%,95,20% (inactive)
O=C(N1CCCCC1Cc1ccccc1)n1cc(-c2cccc(-c3ccccc3)c2)nn1 (stereo not given),75%,95,30% (inactive)
O=C(N1CCCCC1Cc1ccccc1)n1cc(-c2cc(F)cc(F)c2)nn1 (stereo not given),85%,98,95%
O=C(N1CCCCC1Cc1ccccc1)n1cc(-c2ccc(-c3ccc4c(c3)OCO4)cc2)nn1 (stereo not given),25% (inactive),90,20% (inactive)
O=C(N1CCCCC1Cc1ccccc1)n1cc(-c2ccc(OC(F)(F)F)cc2)nn1 (stereo not given),90%,90,90%
O=C(c1ccc(-c2cn(C(=O)N3CCCCC3Cc3ccccc3)nn2)cc1)N1CCCCC1 (stereo not given),95%,95,30% (inactive)

# Source: PubChem BioAssay AID602323 (The Scripps Research Institute Molecular Screening Center, 2012)
